Measurements from patent US20240041042A1, “1-(PYRIDYL)-5-AZINYLPYRAZOLE DERIVATIVES, AND THEIR USE FOR CONTROL OF UNDESIRED PLANT GROWTH” (Bayer Aktiengesellschaft, priority 2020, published 2024).
Like-named read-outs stand apart in the source and are kept apart here.

Tests used:
Format in all cases: in vivo
[1] = tested on: Verconica persica (VERPE); assay: Post-emergence herbicidal action against VERPE; settings: 320 g/ha, VERPE
In short: (§1)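 Doses of 320 g/ha or lower, suffixes a, b and c marking different dosages, were applied post-emergence at the one-leaf stage in 600 l/ha water with 0.5% additive. Damage was assessed visually after about 3 weeks in the greenhouse.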

[2] = tested on: Pharbitis purpurea (PHBPU); assay: Post-emergence herbicidal action against PHBPU; settings: dosage 320 g/ha
In short: as §1

[3] = tested on: Amaranthus retroflexus (AMARE); assay: Pre-emergence herbicidal action against AMARE; settings: visual scoring after about 3 weeks vs untreated controls
In short: (§2)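 Pre-emergence soil-surface spray, WP/EC formulation, 0.5% additive, 600 l/ha water, rates of 320 g/ha or lower. Greenhouse, ~3 wk. Visual score, % of untreated control (100% = plants dead, 0% = like control).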

[4] = tested on: Verconica persica (VERPE); assay: Pre-emergence herbicidal action against VERPE; settings: dosage 320 g/ha
In short: as §2

[5] = tested on: Echinochloa crus-galli (ECHCG); assay: Pre-emergence herbicidal action against ECHCG; settings: dosage 320 g/ha
In short: as §2

Lolium rigidum (LOLRI) [6] = assay: Post-emergence herbicidal action against LOLRI; settings: dosage 320 g/ha
In short: as §1

[7] = tested on: Matricaria inodora (MATIN); assay: Pre-emergence herbicidal action against MATIN
In short: as §2

Brassica napus (BRSNW) = settings: 80 g/ha, crop plant compatibility, in comparison to untreated controls
In short: (§3)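 Crop injury rated visually in percent against untreated plants roughly 3 weeks after treatment (0% no effect, 100% plants dead). Compounds, as WP or EC with 0.5% additive in 600 l/ha water, were applied to the covering soil right after sowing; greenhouse growth. Suffixes a, b, c denote different dosages.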

Oryza sativa (ORYSA) [8] = settings: pre-emergence, 80 g/ha, crop plant compatibility, in comparison to untreated controls
In short: as §3

[9] = tested on: Polygonum convolvulus (POLCO); assay: Post-emergence herbicidal action against POLCO; settings: dosage 320 g/ha
In short: as §1

Setaria viridis (SETVI) [10] = assay: Post-emergence herbicidal action against SETVI; settings: dosage 320 g/ha
In short: as §1

[11] = tested on: Echinochloa crus-galli (ECHCG); assay: Post-emergence herbicidal action against ECHCG
In short: as §1

Avena fatua (AVEFA) = assay: Pre-emergence herbicidal action against AVEFA; settings: 320 g/ha, visual scoring after about 3 weeks vs untreated controls
In short: as §2

Setaria viridis (SETVI) [12] = assay: Pre-emergence herbicidal action against SETVI; settings: dosage 320 g/ha
In short: as §2

Zea mays (ZEAMX) [13] = settings: crop plant compatibility, 80 g/ha, effect vs untreated controls
In short: (§4)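 Percent effect on the crop was judged by eye against untreated controls, where 0% means like control and 100% means dead plants. Plants had been sprayed post-emergence at the one-leaf stage and then kept under optimum greenhouse conditions for about 3 weeks.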

Oryza sativa (ORYSA) [14] = settings: crop plant compatibility, effect in comparison to untreated controls
In short: as §4

[15] = tested on: Triticum aestivum (TRZAS); settings: crop plant compatibility, effect vs untreated controls
In short: as §4

[16] = tested on: Amaranthus retroflexus (AMARE); assay: Post-emergence herbicidal action against AMARE
In short: as §1

[17] = tested on: Polygonum convolvulus (POLCO); assay: Pre-emergence herbicidal action against POLCO
In short: as §2

[18] = tested on: Alopecurus myosuroides (ALOMY); assay: Pre-emergence herbicidal action against ALOMY; settings: 320 g/ha; scored visually after about 3 weeks; 100% = plants have died
In short: as §2

Zea mays (ZEAMX) [19] = settings: pre-emergence, crop plant compatibility, in comparison to untreated controls
In short: as §3

Lolium rigidum (LOLRI) [20] = assay: Pre-emergence herbicidal action against LOLRI; settings: dosage 320 g/ha
In short: as §2

Viola tricolor (VIOTR) = assay: Pre-emergence herbicidal action against VIOTR
In short: as §2

[21] = tested on: Abutilon theophrasti (ABUTH); assay: Post-emergence herbicidal action against ABUTH; settings: 320 g/ha, visual rating about 3 weeks after treatment vs untreated controls (100% = plants have died, 0% = like control plants)
In short: as §1

[22] = 80 g/ha, visual rating about 3 weeks after treatment vs untreated controls (100% = plants have died, 0% = like control plants)
[23] = 320 g/ha, visual rating about 3 weeks after treatment

Cc1cccc(-n2nc(OCC(=O)O)c(Cl)c2-c2ccc(F)nc2)n1 [Example I-351]
80%: Post-emergence action against VERPE in % [1] | Post-emergence action against PHBPU in % [2] | Pre-emergence action against AMARE in % ([3]; 320 g/ha) | Pre-emergence action against VERPE in % [4] | Post-emergence action against LOLRI in % (Lolium rigidum (LOLRI) [6]) | Pre-emergence action against MATIN in % ([7]; dosage 320 g/ha) | Post-emergence action against POLCO in % [9] | Post-emergence action against SETVI in % (Setaria viridis (SETVI) [10]) | Post-emergence action against ECHCG in % ([11]; dosage 320 g/ha) | Pre-emergence action against AVEFA in % (Avena fatua (AVEFA)) | Post-emergence action against AMARE in % [16, 22] | Post-emergence action against AMARE in % [16, 23] | Pre-emergence action against POLCO in % ([17]; dosage 80 g/ha) | Pre-emergence action against POLCO in % ([17]; dosage 320 g/ha)
100%: Pre-emergence action against SETVI in % (Setaria viridis (SETVI) [12])
20%: Pre-emergence action against BRSNW in % (Brassica napus (BRSNW)) | Pre-emergence action against ORYSA in % (Oryza sativa (ORYSA) [8])
0%: Post-emergence action against ORYSA in % (Oryza sativa (ORYSA) [14]; 80 g/ha) | Post-emergence action against TRZAS in % ([15]; 80 g/ha)
90%: Pre-emergence action against ECHCG in % [5]
10%: Post-emergence action against ZEAMX in % (Zea mays (ZEAMX) [13]) | Post-emergence action against TRZAS in % ([15]; 320 g/ha)

COC(=O)CNC(=O)COc1nn(-c2ccccn2)c(-c2ccc(F)nc2)c1F [Example I-377]
90%: Post-emergence action against PHBPU in % [2] | Pre-emergence action against AMARE in % ([3]; 320 g/ha) | Pre-emergence action against MATIN in % ([7]; dosage 320 g/ha) | Post-emergence action against SETVI in % (Setaria viridis (SETVI) [10]) | Post-emergence action against ECHCG in % ([11]; dosage 320 g/ha) | Pre-emergence action against SETVI in % (Setaria viridis (SETVI) [12]) | Post-emergence action against AMARE in % [16, 23]
0%: Pre-emergence action against BRSNW in % (Brassica napus (BRSNW)) | Pre-emergence action against ZEAMX in % (Zea mays (ZEAMX) [19]; 80 g/ha) | Pre-emergence action against ZEAMX in % (Zea mays (ZEAMX) [19]; 320 g/ha) | Post-emergence action against ZEAMX in % (Zea mays (ZEAMX) [13]) | Post-emergence action against ORYSA in % (Oryza sativa (ORYSA) [14]; 80 g/ha) | Post-emergence action against TRZAS in % ([15]; 80 g/ha)
80%: Post-emergence action against VERPE in % [1] | Pre-emergence action against ALOMY [18] | Pre-emergence action against AMARE in % ([3]; 80 g/ha) | Pre-emergence action against VERPE in % [4] | Pre-emergence action against MATIN in % ([7]; dosage 80 g/ha) | Post-emergence action against POLCO in % [9] | Post-emergence action against ECHCG in % ([11]; dosage 80 g/ha) | Post-emergence action against AMARE in % [16, 22]

COCCOC(=O)COc1nn(-c2ncccc2C(F)(F)F)c(-c2ccc(F)nc2)c1Br [Example I-378]
80%: Post-emergence action against VERPE in % [1] | Pre-emergence action against ALOMY [18] | Pre-emergence action against AMARE in % ([3]; 80 g/ha) | Post-emergence action against SETVI in % (Setaria viridis (SETVI) [10]) | Post-emergence action against ECHCG in % ([11]; dosage 320 g/ha) | Post-emergence action against ABUTH in % [21] | Pre-emergence action against POLCO in % ([17]; dosage 320 g/ha)
90%: Pre-emergence action against AMARE in % ([3]; 320 g/ha) | Pre-emergence action against LOLRI in % (Lolium rigidum (LOLRI) [20]) | Pre-emergence action against VIOTR in % (Viola tricolor (VIOTR); 320 g/ha, Viola tricolor)
10%: Post-emergence action against ZEAMX in % (Zea mays (ZEAMX) [13]) | Post-emergence action against ORYSA in % (Oryza sativa (ORYSA) [14]; 80 g/ha)
0%: Pre-emergence action against BRSNW in % (Brassica napus (BRSNW)) | Pre-emergence action against ZEAMX in % (Zea mays (ZEAMX) [19]; 80 g/ha) | Pre-emergence action against ORYSA in % (Oryza sativa (ORYSA) [8])

COC(=O)CCOC(=O)COc1nn(-c2ncccc2C(F)(F)F)c(-c2ccc(F)nc2)c1Br [Example I-381]
80%: Post-emergence action against VERPE in % [1] | Post-emergence action against LOLRI in % (Lolium rigidum (LOLRI) [6]) | Post-emergence action against ECHCG in % ([11]; dosage 320 g/ha) | Pre-emergence action against VIOTR in % (Viola tricolor (VIOTR); dosage 80 g/ha) | Pre-emergence action against POLCO in % ([17]; dosage 320 g/ha)
90%: Pre-emergence action against ALOMY [18] | Pre-emergence action against AMARE in % ([3]; 320 g/ha) | Pre-emergence action against LOLRI in % (Lolium rigidum (LOLRI) [20]) | Pre-emergence action against VIOTR in % (Viola tricolor (VIOTR); 320 g/ha, Viola tricolor)
0%: Pre-emergence action against BRSNW in % (Brassica napus (BRSNW)) | Pre-emergence action against ZEAMX in % (Zea mays (ZEAMX) [19]; 80 g/ha) | Post-emergence action against ZEAMX in % (Zea mays (ZEAMX) [13])
20%: Pre-emergence action against ORYSA in % (Oryza sativa (ORYSA) [8]) | Post-emergence action against ORYSA in % (Oryza sativa (ORYSA) [14]; 80 g/ha) | Post-emergence action against ORYSA in % (Oryza sativa (ORYSA) [14]; 320 g/ha)
